Patent US7910588B2, “5-HT7 receptor antagonists” (Eli Lilly and Company, priority 2007, dated 2011)

Assays:
[1] = test system: dural plasma protein extravasation; assay: Animal model of dural plasma protein extravasation (PPE); format: in vivo; settings: rat
Source text: The dural plasma protein extravasation model is an established model for migraine. The ability of a test compound to reduce extravasation of plasma proteins into the dura under assay conditions is considered indicative of the compound's ability to reduce or prevent the dural inflammation thought to be symptomatic of migraine. (see Johnson, K. W., et al., Neuroreport, 8 (1997) 2237-2240.)
To assay compounds for their ability to reduce or prevent dural plasma protein extravasation, male Harlan Sprague-Dawley rats (250-350 g) are anesthetized with sodium pentobarbital (65 mg/kg, i.p.) and placed in a stereotaxic frame (David Kopf Instruments) with the incisor bar set at −2.5 mm. Following a midline sagital scalp incision, 2 pairs of bilateral holes are drilled through the skull (3.2 mm posterially, 1.8 and 3.8 mm laterally, all coordinates referenced to bregma). […]
The amount of FITC-BSA for each sample is quantified with a fluorescence microscope (Zeiss) equipped with a grating monochromator, a spectrophotometer, and a computer driven stage. Fluorescence measurements are taken at 25 points in a 5×5 grid in 500 μm steps on each dural sample with an excitation wavelength of approximately 490 nm and emission intensity measured at approximately 535 nm. The mean and standard deviation of the 25 measurements are determined. […]

[2] = molecular target: alpha 2 adrenergic; assay: Radioligand binding assay, alpha 2 adrenergic
Protocol: (§1) [^3H] […] The reactions are incubated at room temperature for 3 hr. and then counted in a Trilux Microbeta™ scintillation counter to detect receptor-bound radioligand. Binding data are analyzed by computer-assisted 4 parameter fit analysis (ID Business Solutions Ltd, Guildford, Surrey, UK). […]
(§2) Affinity for other serotonin receptor subtypes as well as for alpha 1 & 2 adrenergic receptors can readily be determined by modification of the above described radioligand receptor binding assay using membranes derived from cells stably expressing the desired receptor subtype including the 5-HT1A, 5-HT1B, and 5-HT1D subtypes, as well as the 5-HT2A, 5-HT2B, 5-HT2C, 5-HT4, 5-HT7, and 5-HT6 receptor subtypes. […]

[3] = molecular target: T1, 5-HT1A (Homo sapiens, UniProt P08908); assay: Radioligand binding assay, 5-HT1A
T1 construct: expressed in transfected cells
T1 sequence (P08908 1-422): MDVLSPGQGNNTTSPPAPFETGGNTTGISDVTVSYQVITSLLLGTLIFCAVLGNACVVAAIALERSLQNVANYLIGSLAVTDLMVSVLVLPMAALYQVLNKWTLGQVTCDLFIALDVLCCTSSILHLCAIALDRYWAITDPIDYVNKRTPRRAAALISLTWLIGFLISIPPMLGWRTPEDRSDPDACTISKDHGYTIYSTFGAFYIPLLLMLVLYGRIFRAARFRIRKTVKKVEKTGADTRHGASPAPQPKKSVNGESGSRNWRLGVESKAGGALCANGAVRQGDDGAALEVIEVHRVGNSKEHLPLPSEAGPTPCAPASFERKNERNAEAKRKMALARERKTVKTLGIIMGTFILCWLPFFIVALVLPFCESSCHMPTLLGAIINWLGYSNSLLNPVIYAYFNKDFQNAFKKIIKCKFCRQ
Protocol: as §1, §2

For `CCn1ncc(CN2CCN(c3cccnc3N3CCC(O)CC3)CC2)c1C.Cl` [Example 1, 3′-[4-(1-Ethyl-5-methyl-1H-pyrazol-4-ylmethyl)-piperazin-1-yl]-3,4,5,6-tetrahydro-2H-[1,2]bipyridinyl-4-ol hydrochloride], the “ratio of extravasation in the dura, stimulated side over unstimulated side” value ([1]; at 0.1 mg/Kg, saline control approximately 2.0, full prevention approximately 1.0) was “about 1.15”, the ID100 ([1]; electrical stimulation of trigeminal ganglion, route not stated for the result) was 0.1 mg/kg and the Ki [2] was > 2670 nM. For the same molecule, the Ki [3] was 213 nM.
